The test addresses Proteinase-activated receptor 1 (Homo sapiens) (UniProt P25116). In words: Antagonist activity against PAR1 in human HT29 cells assessed as inhibition of thrombin-induced Ca2+ responses pre-incubated for 30 mins before thrombin stimulation by FLIPR assay.
Chain of Proteinase-activated receptor 1 (Homo sapiens) (P25116 whole entry, looked up): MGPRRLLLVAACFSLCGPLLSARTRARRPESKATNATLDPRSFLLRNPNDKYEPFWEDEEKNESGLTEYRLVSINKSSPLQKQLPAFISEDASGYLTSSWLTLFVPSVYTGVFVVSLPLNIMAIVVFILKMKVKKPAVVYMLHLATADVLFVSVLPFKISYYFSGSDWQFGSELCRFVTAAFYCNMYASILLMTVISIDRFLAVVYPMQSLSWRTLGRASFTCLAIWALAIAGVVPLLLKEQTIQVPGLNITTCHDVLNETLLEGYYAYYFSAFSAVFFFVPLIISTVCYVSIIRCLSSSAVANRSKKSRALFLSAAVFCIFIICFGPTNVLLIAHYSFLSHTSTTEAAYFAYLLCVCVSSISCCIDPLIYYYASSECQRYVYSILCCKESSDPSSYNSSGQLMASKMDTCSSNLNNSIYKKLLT
Regarding `CC(C)c1cc(-c2ccc(F)cc2)nn2cc(C(=O)N3CCN(C(=O)Cc4ccsc4)[C@@H](C)C3)nc12`, the IC50 is greater than 0.5 µM.
For the molecule `CC(C)(C)OC(=O)N1CCN(C(=O)c2cn3nc(-c4ccc(F)cc4)cc(C(C)(C)C)c3n2)C(C)(C)C1`, the IC50 is greater than 50 µM.
The result for `CCOC(=O)[C@H]1CCCN(C(=O)c2cn3nc(-c4ccc(F)cc4)cc(C(F)(F)F)c3n2)[C@@H]1C` reads 5.5 µM.

By IC50 is commonly meant the concentration needed to halve the response being measured.
